# Laboratory results reported in ChEMBL document CHEMBL4002554, “Terpenoids from Melampodium perfoliatum” (2016).
# Test system: Mus musculus
# Test: Anti-inflammatory activity in TPA-induced CD1 mouse ear acute inflammation model assessed as reduction in TPA-induced ear edema at 1 mg/ear administered topically 10 mins prior to TPA challenge measured after 4 hrs relative to control
# Type: functional
row,SMILES,inhibition (INH) [%]
1,CC1(C)[C@H]2CC[C@@]34C[C@@H](CC[C@H]3[C@]2(C)CC[C@@H]1O)[C@@](O)(CO)C4,<50
2,C=C1C(=O)O[C@@H]2/C=C(\C)[C@@H]3O[C@@H]3/C=C(/C(=O)OC)[C@H](OC(=O)[C@]3(C)O[C@@H]3C)[C@@H](OC(=O)[C@]3(C)O[C@@H]3C)[C@@H]12,<50
3,C=C1C(=O)O[C@H]2[C@H]1[C@H](OC(=O)[C@]1(C)O[C@@H]1C)[C@@H](OC(=O)[C@]1(C)O[C@@H]1C)/C(C(=O)OC)=C\CC[C@@]1(C)O[C@H]21,<50

# Test system: Mus musculus
# Test: Anti-inflammatory activity in TPA-induced CD1 mouse ear acute inflammation model assessed as reduction in TPA-induced ear edema administered topically 10 mins prior to TPA challenge measured after 4 hrs
# Type: functional
SMILES,ID50 [µmol],inhibition
C=C1C(=O)O[C@@H]2/C=C(\C)CC/C=C(/C(=O)OC)[C@H](O)[C@@H](OC(=O)[C@]3(C)O[C@@H]3C)[C@@H]12,1.15,Dose-dependent effect
C=C1C(=O)O[C@@H]2/C=C(\C)CC/C=C(/C(=O)OC)[C@H](O)[C@@H](OC(=O)/C(C)=C\C)[C@@H]12,0.56,Dose-dependent effect
C=C1C(=O)O[C@@H]2/C=C(\C)[C@@H]3O[C@@H]3/C=C(/C(=O)OC)[C@H](O)[C@@H](OC(=O)[C@]3(C)O[C@@H]3C)[C@@H]12 [MELAMPODIN A],1.14,Dose-dependent effect
COc1ccc2c(c1)c(CC(=O)O)c(C)n2C(=O)c1ccc(Cl)cc1 [INDOMETHACIN],0.24,–
CC(C)=CC(=O)C[C@@]12O[C@@H]1CC[C@]1(C)O[C@](C)(C(O)CO)CC[C@@H]1OC2=O (some centres not stated),1.49,Dose-dependent effect
